Tested on: B cell receptor-mediated activation of B cells in human blood
Assay: Inhibition of B cell activation in whole blood measured by CD69 expression
Type: cell-based
Conditions: anti-IgM stimulation, 20 hours, CD69-positive cells that are also CD20-positive, read-out: HWB IC50
Method: A procedure to test the ability of Btk inhibitors to suppress B cell receptor-mediated activation of B cells in human blood is as follows:
Human whole blood (HWB) is obtained from healthy volunteers, with the following restrictions: 24 hr drug-free, non-smokers. Blood is collected by venipuncture into Vacutainer tubes anticoagulated with sodium heparin. Test compounds are diluted to ten times the desired starting drug concentration in PBS (20×), followed by three-fold serial dilutions in 10% DMSO in PBS to produce a nine point dose-response curve. 5.5 μl of each compound dilution is added in duplicate to a 2 ml 96-well V bottom plate (Analytical Sales and Services, #59623-23); 5.5 μl of 10% DMSO in PBS is added to control and no-stimulus wells. HWB (100 μl) is added to each well, and after mixing the plates are incubated at 37 C, 5% CO2, 100% humidity for 30 minutes. Goat F(ab′)2 anti-human IgM (Southern Biotech, #2022-14) (10 μl of a 500 μg/ml solution, 50 μg/ml final concentration) is added to each well (except the no-stimulus wells) with mixing and the plates are incubated for an additional 20 hours.
At the end of the 20 hour incubation, samples are incubated with florescent-probe-labeled anti-bodies (15 μl PE Mouse anti-Human CD20, BD Pharmingen, #555623, and/or 20 ul APC Mouse anti-Human CD69, BD Pharmingen #555533) for 30 minutes, at 37 C, 5% CO2, 100% humidity. Included are induced control, unstained and single stains for compensation adjustments and initial voltage settings. Samples are then lysed with 1 ml of 1× Pharmingen Lyse Buffer (BD Pharmingen #555899), and plates are centrifuged at 1800 rpm for 5 minutes. Supernatants are removed via suction and the remaining pellets are lysed again with another 1 ml of 1× Pharmingen Lyse Buffer, and plates are spun down as before. Supernatants are aspirated and remaining pellets are washed in FACs buffer (PBS+1% FBS). After a final spin, the supernantants are removed and pellets are resuspended in 180 μl of FACs buffer. Samples are transferred to a 96 well plate suitable to be run on the HTS 96 well system on the BD LSR II flow cytometer.
Using appropriate excitation and emission wavelengths for the fluorophores used, data are acquired and percent positive cell values are obtained using Cell Quest Software. Results are initially analyzed by FACS analysis software (Flow Jo). […] The IC50 values are calculated using XLfit software version 3, equation 201.

Structure (SMILES) | IC50
CN1CCN(Cc2ccc(Nc3cc(-c4cccc(-n5ncc6cc(C(C)(C)C)cc(F)c6c5=O)c4CO)nn4ccnc34)nc2)CC1 [Compound I-4, 6-tert-Butyl-8-fluoro-2-(2-hydroxymethyl-3-{8-[5-(4-methyl-piperazin-1-ylmethyl)-pyridin-2-ylamino]-imidazo[1,2-b]pyridazin-6-yl}-phenyl)-2H-phthalazin-1-one] | 13 nM
CC(C)(C)c1cc(F)c2c(=O)n(-c3cccc(-c4cc(Nc5ccc(C(=O)N6CCOCC6)cn5)c5ncccc5c4)c3CO)ncc2c1 [Compound I-13, 6-tert-Butyl-8-fluoro-2-(2-hydroxymethyl-3-{8-[5-(morpholine-4-carbonyl)-pyridin-2-ylamino]-quinolin-6-yl}-phenyl)-2H-phthalazin-1-one] | > 5000 nM
CC(C)N1CCN(c2ccc(Nc3cc(-c4cccc(-n5ncc6cc(C(C)(C)C)cc(F)c6c5=O)c4CO)nn4ccnc34)nc2)CC1 [Compound I-3, 6-tert-Butyl-8-fluoro-2-(2-hydroxymethyl-3-{8-[5-(4-isopropyl-piperazin-1-yl)-pyridin-2-ylamino]-imidazo[1,2-b]pyridazin-6-yl}-phenyl)-2H-phthalazin-1-one] | 40 nM
CC(C)(C)c1cc(F)c2c(=O)n(-c3cccc(-c4ccnc(Nc5ccc(C(=O)N6CCOCC6)cn5)c4)c3CO)ncc2c1 [Compound I-6, 6-tert-Butyl-8-fluoro-2-(2-hydroxymethyl-3-{2-[5-(morpholine-4-carbonyl)-pyridin-2-ylamino]-pyridin-4-yl}-phenyl)-2H-phthalazin-1-one] | 480 nM
CC(C)(C)c1cc(F)c2c(=O)n(-c3cccc(-c4cnnc(Nc5ccc(C(=O)N6CCOCC6)cn5)c4)c3CO)ncc2c1 [Compound I-5, 6-tert-Butyl-8-fluoro-2-(2-hydroxymethyl-3-{6-[5-(morpholine-4-carbonyl)-pyridin-2-ylamino]-pyridazin-4-yl}-phenyl)-2H-phthalazin-1-one] | 890 nM
CN1CCC(c2ccc(Nc3nc(-c4cccc(-n5ncc6cc(C(C)(C)C)cc(F)c6c5=O)c4CO)cn4ccnc34)cc2)CC1 [Compound I-8, 6-tert-Butyl-8-fluoro-2-(2-hydroxymethyl-3-{8-[4-(1-methyl-piperidin-4-yl)-phenylamino]-imidazo[1,2-a]pyrazin-6-yl}-phenyl)-2H-phthalazin-1-one] | 2270 nM
CN1CCC(c2ccc(Nc3cc(-c4cccc(-n5ncc6cc(C(C)(C)C)cc(F)c6c5=O)c4CO)cn4ccnc34)nc2)CC1 [Compound I-11, 6-tert-Butyl-8-fluoro-2-{2-hydroxymethyl-3-[8-(1′-methyl-1′,2′,3′,4′,5′,6′-hexahydro-[3,4′]bipyridinyl-6-ylamino)-imidazo[1,2-a]pyridin-6-yl]-phenyl}-2H-phthalazin-1-one] | 72 nM
CC(C)(C)c1cc(F)c2c(=O)n(-c3cccc(-c4cc(Nc5ccc(C(=O)N6CCOCC6)cn5)ncn4)c3CO)ncc2c1 [Compound I-12, 6-tert-Butyl-8-fluoro-2-(2-hydroxymethyl-3-{6-[5-(morpholine-4-carbonyl)-pyridin-2-ylamino]-pyrimidin-4-yl}-phenyl)-2H-phthalazin-1-one] | 2500 nM

Next, values leading:

IC50 | Structure (SMILES)
112 nM | CC(C)(C)c1cc(F)c2c(=O)n(-c3cccc(-c4cn5ccnc5c(Nc5ccc(C(=O)N6CCOCC6)cc5)n4)c3CO)ncc2c1 [Compound I-7, 6-tert-Butyl-8-fluoro-2-(2-hydroxymethyl-3-{8-[4-(morpholine-4-carbonyl)-phenylamino]-imidazo[1,2-a]pyrazin-6-yl}-phenyl)-2H-phthalazin-1-one]
142 nM | CC(C)(C)c1cc(F)c2c(=O)n(-c3cccc(-c4cc(Nc5ccc(C(=O)N6CCOCC6)cn5)c5nccn5c4)c3CO)ncc2c1 [Compound I-10, 6-tert-Butyl-8-fluoro-2-(2-hydroxymethyl-3-{8-[5-(morpholine-4-carbonyl)-pyridin-2-ylamino]-imidazo[1,2-a]pyridin-6-yl}-phenyl)-2H-phthalazin-1-one]
77 nM | CC(C)(C)c1cc(F)c2c(=O)n(-c3cccc(-c4cc(Nc5ccc(C(=O)N6CCOCC6)cn5)c5nccn5n4)c3CO)ncc2c1 [Compound I-2, 6-tert-Butyl-8-fluoro-2-(2-hydroxymethyl-3-{8-[5-(morpholine-4-carbonyl)-pyridin-2-ylamino]-imidazo[1,2-b]pyridazin-6-yl}-phenyl)-2H-phthalazin-1-one]
350 nM | CC(C)(C)c1cc(F)c2c(=O)n(-c3cccc(-c4cc(Nc5ccc(C(=O)N6CCOCC6)cn5)c5ncnn5c4)c3CO)ncc2c1 [Compound I-1, 6-tert-Butyl-8-fluoro-2-(2-hydroxymethyl-3-{8-[5-(morpholine-4-carbonyl)-pyridin-2-ylamino]-[1,2,4]triazolo[1,5-a]pyridin-6-yl}-phenyl)-2H-phthalazin-1-one]
1040 nM | CC(C)(C)c1cc(F)c2c(=O)n(-c3cccc(-c4cc(Nc5ccc(C(=O)N6CCOCC6)cc5)c5nccn5c4)c3CO)ncc2c1 [Compound I-9, 6-tert-Butyl-8-fluoro-2-(2-hydroxymethyl-3-{8-[4-(morpholine-4-carbonyl)-phenylamino]-imidazo[1,2-a]pyridin-6-yl}-phenyl)-2H-phthalazin-1-one]

Reference: US8742098B2, “Inhibitors of Bruton's tyrosine kinase” (Hoffmann-La Roche Inc., priority 2011, dated 2014)
